Measurements reported in US20190233884A1 (University of Southern California, priority 2016, published 2019).

Test system: patients with refractory metastatic colorectal cancer (mCRC)
Assay: PFS, OS and disease control in the training (evaluation) cohort of refractory mCRC patients receiving TAS-102 (n=52, Japan), by baseline characteristics, SNP genotype and toxicity
Format: in vivo, human
Settings: for PFS HR (95% CI) ‡ / OS HR (95% CI)‡: multivariable; for HR for OS / HR for PFS / Disease Control Rate PD / Disease Control Rate SD / Overall Survival Median, months (95% CI) / Progression-free Survival Median, months (95% CI) / Overall Survival HR (95% CI) multivariate / Overall Survival HR (95% CI) univariate / Progression-free Survival HR (95% CI) multivariate / Progression-free Survival HR (95% CI) univariate / OS / PFS: training cohort
Description: All patients underwent the treatment in salvage-line setting. […]
(§1) Genomic DNA was extracted from peripheral whole blood in patients of all cohorts using the QIAmp Kit (Qiagen, Valencia, Calif., USA) according to the manufacturer's protocol (www.qiagen.com). The candidate SNPs were genotyped using PCR-based direct DNA sequence analysis by ABI 3100A Capillary Genetic Analyzer and Sequencing Scanner v1.0 (Applied Biosystems). Amplification of extracted DNA was carried out using both forward and reverse primers for each gene polymorphism as shown in Table 1. […] The investigators analyzing SNPs were blinded to the clinical data of the study patients.
The primary endpoint in this study was progression-free survival (PFS), and the secondary endpoints were overall survival (OS) and disease control rate (DCR). PFS was calculated from the date of starting treatment to the first observation of disease progression or death from any cause. If a patient had no disease progression or death, PFS was censored at the date of last follow up. OS was calculated from the date of starting treatment until the date of death from any cause or the date of the last follow-up, at which point OS was censored. The disease control rate (DCR) was defined as the proportion of patients who achieved a stable disease (SD) or […] according to RECISTv1.1. Chi-square test was used to examine the difference in baseline patient characteristics among the three cohorts. Allelic distribution of all SNPs by ethnicity for deviation from Hardy-Weinberg equilibrium and the allelic frequencies of SNPs were tested using the Chi-square tests with one degree of freedom. The associations between candidate SNPs and disease control, and toxicities were examined using contingency tables and Fisher's exact test. The associations of SNPs with PFS and OS were analysed using Kaplan-Meier curves and the log-rank test. Because the true mode of inheritance of candidate SNPs was not established yet, a codominant or dominant genetic model if appropriate was considered.
All patients underwent the treatment in salvage-line setting. […] In all patients, adverse events were graded according to the Common Terminology Criteria for Adverse Events, version 4.0. […]
as §1, with “tested” for “genotyped”, “Biosystems).” for “Biosystems). Amplification of extracted DNA was carried out using both forward and reverse primers for each gene polymorphism as shown in Table 1.”, “data.” for “data of the study patients.”
The primary endpoint in this study was progression-free survival (PFS), and the secondary endpoints were overall survival (OS) and disease control rate (DCR).

[1] = p21 rs1801270 Any C vs A/A, univariate
[2] = p21 rs1801270 C/C vs A/A, univariate
[3] = p53 rs1042522 Any G vs C/C, univariate
[4] = p53 rs1042522 C/G vs C/C, univariate
[5] = p53 rs1042522 G/G vs C/C, univariate
[6] = MATE1/OCT2 combination Good vs Poor, univariate
[7] = MATE1/OCT2 combination, multivariable adjusted for liver metastases and adjuvant history
[8] = MATE1 rs2289669/OCT2 rs316019 combination, Good category
[9] = MATE1 rs2289669/OCT2 rs316019 combination, Poor category
[10] = MATE1 rs2289669 G/A vs G/G, univariate
[11] = OCT2 rs316019 C/A and A/A combined vs C/C

In the case of Trifluridine/tipiracil [TAS-102], the “PFS HR (95% CI) ‡” value (p21 rs1801270 Any C vs A/A) is reported as 0.74 (0.37, 1.49), the “OS HR (95% CI)†” value [1] is reported as 0.64 (0.27, 1.56) and the “PFS HR (95% CI) †” value [1] is reported as 0.88 (0.44, 1.74). For the same substance, the “OS median, months (95% CI)” value (p21 rs1801270 C/C) was 6.3 (3.1, 10.7) months, the “PFS median, months (95% CI)” value (p21 rs1801270 C/C) was 2.7 (1.6, 4.6) months and the “OS HR (95% CI)‡” value (p21 rs1801270 C/C vs A/A) was 0.72 (0.24, 2.15). The “PFS HR (95% CI) ‡” value (p21 rs1801270 C/C vs A/A) was 0.77 (0.33, 1.79), the “OS HR (95% CI)†” value [2] was 0.85 (0.29, 2.48) and the “PFS HR (95% CI) †” value [2] was 0.97 (0.43, 2.17). For the same substance, the “OS median, months (95% CI)” value (p53 rs1042522 Any G) was 7.2 (5.4, 15.6+) months, the “PFS median, months (95% CI)” value (p53 rs1042522 Any G) was 3.0 (2.1, 3.4) months and the “OS HR (95% CI)‡” value (p53 rs1042522 Any G vs C/C) was 1.28 (0.52, 3.19). For the same substance, the “PFS HR (95% CI) ‡” value (p53 rs1042522 Any G vs C/C) was 1.10 (0.58, 2.09), the “OS HR (95% CI)†” value [3] was 1.15 (0.47, 2.81) and the “PFS HR (95% CI) †” value [3] was 0.89 (0.48, 1.65). For the same substance, the “OS median, months (95% CI)” value (p53 rs1042522 C/C) was 8.7 (5.3, 14.8+) months, the “PFS median, months (95% CI)” value (p53 rs1042522 C/C) was 2.5 (1.6, 4.4) months and the “OS median, months (95% CI)” value (p53 rs1042522 C/G) was 6.3 (4.4, 12.4+) months. For the same substance, the “PFS median, months (95% CI)” value (p53 rs1042522 C/G) was 3.0 (1.9, 3.5) months, the “OS HR (95% CI)‡” value (p53 rs1042522 C/G vs C/C) was 1.61 (0.64, 4.06) and the “PFS HR (95% CI) ‡” value (p53 rs1042522 C/G vs C/C) was 1.12 (0.57, 2.21). For the same substance, the “OS HR (95% CI)†” value [4] was 1.35 (0.55, 3.35), the “PFS HR (95% CI) †” value [4] was 0.86 (0.45, 1.65) and the “PFS median, months (95% CI)” value (p53 rs1042522 G/G) was 2.3 (0.7, 4.6+) months. For the same substance, the “OS HR (95% CI)‡” value (p53 rs1042522 G/G vs C/C) was 0.38 (0.05, 3.11), the “PFS HR (95% CI) ‡” value (p53 rs1042522 G/G vs C/C) was 1.04 (0.38, 2.86) and the “OS HR (95% CI)†” value [5] was 0.41 (0.05, 3.29). The “PFS HR (95% CI) †” value [5] was 1.02 (0.37, 2.77), the “HR for OS” value [6] was 0.39 and the “HR for PFS” value [6] was 0.44. For the same substance, the “HR for OS” value [7] was 0.41, the “HR for PFS” value [7] was 0.45 and the “Disease Control Rate PD” value (MATE1_OCT019 good) was 20 (59%). For the same substance, the “Disease Control Rate SD” value (MATE1_OCT019 good) was 14 (41%), the “Overall Survival Median, months (95% CI)” value (MATE1_OCT019 good) was 8.3 (6.3, 15.6) months and the “Progression-free Survival Median, months (95% CI)” value (MATE1_OCT019 good) was 3.4 (2.1, 4.1) months. The “Overall Survival HR (95% CI) multivariate” value (MATE1_OCT019 good vs poor) was 0.41 (0.16, 1.04), the “Overall Survival HR (95% CI) univariate” value (MATE1_OCT019 good vs poor) was 0.39 (0.15, 0.98) and the “Progression-free Survival HR (95% CI) multivariate” value (MATE1_OCT019 good vs poor) was 0.45 (0.23, 0.88). For the same substance, the “Progression-free Survival HR (95% CI) univariate” value (MATE1_OCT019 good vs poor) was 0.44 (0.22, 0.85), the “Disease Control Rate PD” value (MATE1_OCT019 poor) was 11 (92%) and the “Disease Control Rate SD” value (MATE1_OCT019 poor) was 1 (8%). The “Overall Survival Median, months (95% CI)” value (MATE1_OCT019 poor) was 4.9 (2.8, 10.7) months, the “Progression-free Survival Median, months (95% CI)” value (MATE1_OCT019 poor) was 2.3 (1.2, 2.9) months and the OS [8] was 8.3 months. For the same substance, the PFS [8] was 3.4 months, the OS [9] was 4.9 months and the PFS [9] was 2.3 months. For the same substance, the “Disease Control Rate PD” value (MATE1 rs2289669 A/A) was 8 (80%), the “Disease Control Rate SD” value (MATE1 rs2289669 A/A) was 2 (20%) and the “Overall Survival Median, months (95% CI)” value (MATE1 rs2289669 A/A) was 4.9 (2.8, 6.5+) months. For the same substance, the “Progression-free Survival Median, months (95% CI)” value (MATE1 rs2289669 A/A) was 2.3 (1.2, 3.3) months, the “Overall Survival HR (95% CI) multivariate” value (MATE1 rs2289669 A/A vs G/G) was 1.98 (0.56, 6.99) and the “Overall Survival HR (95% CI) univariate” value (MATE1 rs2289669 A/A vs G/G) was 2.40 (0.59, 8.37). The “Progression-free Survival HR (95% CI) multivariate” value (MATE1 rs2289669 A/A vs G/G) was 0.92 (0.38, 2.24), the “Progression-free Survival HR (95% CI) univariate” value (MATE1 rs2289669 A/A vs G/G) was 0.94 (0.40, 2.18) and the “Disease Control Rate PD” value (MATE1 rs2289669 Any A) was 22 (61%). For the same substance, the “Disease Control Rate SD” value (MATE1 rs2289669 Any A) was 14 (39%), the “Overall Survival Median, months (95% CI)” value (MATE1 rs2289669 Any A) was 8.3 (5.3, 15.6+) months and the “Progression-free Survival Median, months (95% CI)” value (MATE1 rs2289669 Any A) was 3.0 (2.1, 3.7) months. For the same substance, the “Overall Survival HR (95% CI) multivariate” value (MATE1 rs2289669 Any A vs G/G) was 0.93 (0.33, 2.59), the “Overall Survival HR (95% CI) univariate” value (MATE1 rs2289669 Any A vs G/G) was 1.03 (0.37, 2.83) and the “Progression-free Survival HR (95% CI) multivariate” value (MATE1 rs2289669 Any A vs G/G) was 0.53 (0.25, 1.13). For the same substance, the “Progression-free Survival HR (95% CI) univariate” value (MATE1 rs2289669 Any A vs G/G) was 0.56 (0.28, 1.13), the “Disease Control Rate PD” value (MATE1 rs2289669 G/A) was 14 (54%) and the “Disease Control Rate SD” value (MATE1 rs2289669 G/A) was 12 (45%). For the same substance, the OS (MATE1 rs2289669 G/A) was 12.4 months, the “Overall Survival Median, months (95% CI)” value (MATE1 rs2289669 G/A) was 12.4 (5.7, 15.6+) months and the PFS (MATE1 rs2289669 G/A) was 3.4 months. For the same substance, the “Progression-free Survival Median, months (95% CI)” value (MATE1 rs2289669 G/A) was 3.4 (2.1, 4.4) months, the “Overall Survival HR (95% CI) multivariate” value (MATE1 rs2289669 G/A vs G/G) was 0.59 (0.23, 2.11) and the “Overall Survival HR (95% CI) univariate” value (MATE1 rs2289669 G/A vs G/G) was 0.75 (0.26, 2.28). The “Progression-free Survival HR (95% CI) multivariate” value (MATE1 rs2289669 G/A vs G/G) was 0.41 (0.18, 0.94), the “Progression-free Survival HR (95% CI) univariate” value (MATE1 rs2289669 G/A vs G/G) was 0.44 (0.20, 0.93) and the “HR for OS” value [10] was 0.76. For the same substance, the “HR for PFS” value [10] was 0.44, the “HR for PFS” value (MATE1 rs2289669 G/A, multivariate adjusted for liver metastases and adjuvant history) was 0.41 and the “Disease Control Rate PD” value (MATE1 rs2289669 G/G) was 9 (90%). The “Disease Control Rate SD” value (MATE1 rs2289669 G/G) was 1 (10%), the OS (MATE1 rs2289669 G/G) was 8.1 months and the “Overall Survival Median, months (95% CI)” value (MATE1 rs2289669 G/G) was 8.1 (5.4, 10.7+) months. For the same substance, the PFS (MATE1 rs2289669 G/G) was 2.0 months, the “Progression-free Survival Median, months (95% CI)” value (MATE1 rs2289669 G/G) was 2.0 (1.4, 3.4) months and the “Disease Control Rate PD” value (OCT2 rs316019 A/A) was 1 (25%). The “Disease Control Rate SD” value (OCT2 rs316019 A/A) was 3 (75%), the “Disease Control Rate PD” value (OCT2 rs316019 C/A) was 6 (67%) and the “Disease Control Rate SD” value (OCT2 rs316019 C/A) was 3 (33%). For the same substance, the “Progression-free Survival Median, months (95% CI)” value (OCT2 rs316019 C/A and A/A combined) was 3.0 (1.2, 6.0+) months, the “Overall Survival HR (95% CI) multivariate” value [11] was 1.74 (0.55, 5.51) and the “Overall Survival HR (95% CI) univariate” value [11] was 1.04 (0.38, 2.89). The “Progression-free Survival HR (95% CI) multivariate” value [11] was 1.32 (0.58, 3.02).
